Data on three molecules can be found in patent US6914051B1, “Penetrating antibiotic gel for soft tissue diseases” (priority 2000, dated 2005).

SMILES strings stand for the structures.

The test system of one assay is Chlamydia Pneumoniae. As to conditions: reported; cited from earlier work.
The subject of another assay is phospholipase A2. As to conditions: VanBebeke et al, 1994; cited from earlier work.
Assay [1] concerns cervical/lumbosacral disc disease. Nature of the assay: Clinical injection/arthroscopic application of azithromycin with liposome in disc disease. As to conditions: two occasions, applied with a liposome and another anti-inflammatory at surgical arthroscopy of the intervertebral disc. It counts as in vivo, human. From the text:
The therapy of the present invention was also observed to be effective in clinical treatment of cervical/lumbosacral disc disease.

Assay [2] relates to severe acute lower back pain. Particulars: short-term oral treatment; effect not seen three or so days after onset; cited from earlier work.

Consider `Cc1c(F)c(N2CCNC(C)C2)cc2c1c(=O)c(C(=O)O)cn2C1CC1` (centres unmarked) [Grepafloxacin], for which the “potency against Chlamydia Pneumoniae” value in the assay on Chlamydia Pneumoniae was “good potency”. On to `CC[C@H]1OC(=O)[C@H](C)[C@@H](O[C@H]2C[C@@](C)(OC)[C@@H](O)[C@H](C)O2)[C@H](C)[C@@H](O[C@@H]2O[C@H](C)C[C@H](N(C)C)[C@H]2O)[C@](C)(O)C[C@@H](C)CN(C)[C@H](C)[C@@H](O)[C@]1(C)O` [azithromycin, azithromycin dihydrate], for which the “effect on neurotoxic phospholipase A2” value with phospholipase A2 is “direct effect in mitigating the effects”. Besides, the “relief of the patients' severe pain” value in assay [1] was “good and immediate relief”. The “response of severe acute lower back pain” value in assay [2] was “respond dramatically”. In the case of `CO[C@H]1/C=C/O[C@@]2(C)Oc3c(C)c(O)c4c(O)c(c(/C=N/N5CCN(C)CC5)c(O)c4c3C2=O)NC(=O)/C(C)=C\C=C\[C@H](C)[C@H](O)[C@@H](C)[C@@H](O)[C@@H](C)[C@H](OC(C)=O)[C@@H]1C` [rifanpin], the “potency against Chlamydia Pneumoniae” value in the assay with Chlamydia Pneumoniae is “good potency”.
